Patent US12624067B2, “Cyclic peptide, cell scaffold material, cell separating material, and medium” (FUJIFILM Corporation, priority 2019, dated 2026)
Numbered stars: 1 amine (or outer) side, 2 acyl side, 3 side chain; on linkers, the order of the positions; unused ones are H or OH. Bridge positions count the residues as written; N and C are the ends. Square brackets hold non-standard residues; d marks the D form. Peptide text beside a SMILES is read from it. Pen = CC(C)(S)[C@H](N)C(=O)O; hCys = N[C@@H](CCS)C(=O)O; Orn = NCCC[C@H](N)C(=O)O; Dap = NC[C@H](N)C(=O)O; X1 = O=C(C[*:1])[*:2]; X2 = O=C(C[*:2])[*:1]

Experiments:
human integrin αvβ5 = human integrin αvβ5 (Homo sapiens, UniProt P06756+P18084); test: Evaluation of integrin binding property (surface plasmon resonance, Biacore 3000, immobilized cyclic peptide); conditions: peptide immobilized on CM5 sensor chip; human integrin αvβ5 30-1,000 nM, 25° C., HEPES buffer with 5 mM magnesium chloride; read-out: Integrin binding property (dissociation constant)
Sequence of human integrin αvβ5 (P06756 31-889 limits assumed): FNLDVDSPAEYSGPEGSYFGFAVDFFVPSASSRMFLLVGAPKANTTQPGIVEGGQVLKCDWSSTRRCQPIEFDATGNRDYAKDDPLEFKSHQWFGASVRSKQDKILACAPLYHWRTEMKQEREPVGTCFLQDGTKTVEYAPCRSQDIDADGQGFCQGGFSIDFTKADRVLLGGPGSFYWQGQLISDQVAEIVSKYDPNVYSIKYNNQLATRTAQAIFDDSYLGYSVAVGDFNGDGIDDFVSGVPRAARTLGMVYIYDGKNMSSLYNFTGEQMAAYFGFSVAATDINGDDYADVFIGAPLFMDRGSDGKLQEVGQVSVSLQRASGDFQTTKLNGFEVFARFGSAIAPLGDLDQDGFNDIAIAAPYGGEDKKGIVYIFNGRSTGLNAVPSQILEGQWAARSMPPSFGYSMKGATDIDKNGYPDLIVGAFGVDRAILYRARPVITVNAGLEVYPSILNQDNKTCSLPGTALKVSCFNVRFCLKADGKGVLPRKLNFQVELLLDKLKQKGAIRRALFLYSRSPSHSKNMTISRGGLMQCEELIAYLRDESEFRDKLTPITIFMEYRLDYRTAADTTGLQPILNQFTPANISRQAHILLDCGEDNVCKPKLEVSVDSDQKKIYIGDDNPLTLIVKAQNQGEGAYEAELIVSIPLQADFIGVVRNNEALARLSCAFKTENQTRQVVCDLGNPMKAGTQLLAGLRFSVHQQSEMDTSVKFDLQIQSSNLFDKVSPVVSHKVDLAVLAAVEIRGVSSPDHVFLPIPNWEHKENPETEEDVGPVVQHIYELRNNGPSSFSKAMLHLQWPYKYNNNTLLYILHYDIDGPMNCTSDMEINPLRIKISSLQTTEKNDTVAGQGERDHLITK
Sequence of human integrin αvβ5 (P06756 891-1048 partner limits assumed): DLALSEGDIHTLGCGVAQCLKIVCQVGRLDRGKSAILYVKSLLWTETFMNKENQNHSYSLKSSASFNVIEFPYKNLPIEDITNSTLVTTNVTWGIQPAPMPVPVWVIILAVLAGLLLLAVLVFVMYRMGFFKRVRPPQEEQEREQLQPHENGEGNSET
Sequence of human integrin αvβ5 (P18084 24-799): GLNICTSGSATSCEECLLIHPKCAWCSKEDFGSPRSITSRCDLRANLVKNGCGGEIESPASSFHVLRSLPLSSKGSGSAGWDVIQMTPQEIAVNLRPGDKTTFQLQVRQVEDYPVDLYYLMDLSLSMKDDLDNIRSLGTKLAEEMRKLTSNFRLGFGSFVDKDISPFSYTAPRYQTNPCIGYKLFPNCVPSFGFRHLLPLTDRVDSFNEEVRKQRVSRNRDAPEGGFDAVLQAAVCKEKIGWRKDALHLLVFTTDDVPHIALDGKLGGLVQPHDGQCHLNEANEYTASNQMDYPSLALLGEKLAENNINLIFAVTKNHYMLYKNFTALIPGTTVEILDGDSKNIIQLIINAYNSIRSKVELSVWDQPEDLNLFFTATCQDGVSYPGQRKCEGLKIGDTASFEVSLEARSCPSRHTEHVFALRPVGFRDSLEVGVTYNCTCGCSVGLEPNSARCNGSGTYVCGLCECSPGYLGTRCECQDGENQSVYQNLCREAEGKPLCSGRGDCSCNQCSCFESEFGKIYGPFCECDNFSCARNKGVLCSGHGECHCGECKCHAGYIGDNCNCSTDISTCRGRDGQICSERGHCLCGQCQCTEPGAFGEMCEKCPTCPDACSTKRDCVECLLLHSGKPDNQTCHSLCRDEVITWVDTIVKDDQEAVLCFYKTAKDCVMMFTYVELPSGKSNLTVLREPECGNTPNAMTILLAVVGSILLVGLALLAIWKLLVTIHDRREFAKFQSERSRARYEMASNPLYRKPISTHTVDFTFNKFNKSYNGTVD
Protocol: A commercially available CM5 sensor chip (a carboxymethyl dextran introduction type, manufactured by GE Healthcare) was set in a surface plasmon resonance apparatus (product name: Biacore 3000, manufactured by GE Healthcare), the sensor was stabilized at a flow rate of 10 μL/min of a 4-(2-hydroxyethyl)-1-piperazineethanesulfonic acid (HEPES) buffer solution (20 mM HEPES-HCl, 150 mM NaCl, pH 7.4) for surface plasmon resonance (SPR), and 70 μL of a mixed aqueous solution of 0.2 M 1-(3-dimethylaminopropyl)-3-ethylcarbodiimide (EDC) and 0.04 M N-hydroxysuccinimide (NHS) was added thereto. Then, 300 μL of the sample solution of each of the above cyclic peptides diluted to 0.2 g/L with the HEPES buffer solution was supplied to the sensor chip, blocking treatment was subsequently carried out with an ethanolamine solution, and washing was carried out with a sodium hydroxide aqueous solution, whereby immobilization was carried out. However, only for the cyclic peptide 22, in which the number of lysine residues having an amino group as the immobilizing functional group was 1, the sample solution to be supplied to the sensor chip was set to 5,000 μL instead of 300 μL. Similarly; 70 μL of the mixed aqueous solution of 0.2 M EDC and 0.04 M NHS was added to another flow channel of the same sensor chip without immobilizing the sample, and then blocking treatment and washing treatment were carried out. Hereinafter, the obtained immobilization-treated sensor chip is referred to as an “immobilization-treated sensor chip A”.
After adding human integrin αvβ5 for 10 minutes at 25° C., which was diluted to 30 nM using a HEPES buffer solution to which magnesium chloride was added to 5 mM, in each flow channel of the immobilization-treated sensor chip A prepared in (1) above, the same HEPES buffer solution (containing 5 mM magnesium chloride) was allowed to flow as a running buffer for 30 minutes, and measurement was carried out with Biacore 3000.
Then, a regeneration treatment of removing human integrin αvβ5 was carried out by allowing a 0.5 M EDTA aqueous solution to flow through each flow channel for 10 minutes. Further, the above-described measurement process consisting of adding integrin for 10 minutes, allowing a running buffer to flow for 30 minutes, carrying out measurement with Biacore 3000, and carrying out regeneration treatment with 0.5 M EDTA aqueous solution was carried out in the same manner for 100 nM human integrin αvβ5, 300 nM human integrin αvβ5, and 1,000 nM human integrin αvβ5. Dissociation constant between the cyclic peptide and human integrin αvβ5 was calculated from the difference between the value measured by Biacore 3000 in the flow channel immobilized with the cyclic peptide and the value measured by Biacore 3000 in the flow channel unimmobilized with the cyclic peptide, in a case where each concentration of human integrin αvβ5 was allowed to flow; and the integrin binding property was evaluated according to the following evaluation standards. It is preferable that the evaluation result satisfies the evaluation standard A, B, or C.

[1] = Evaluation of molecule stability (alkali treatment, LC/MS residual rate); format: physicochemical; conditions: 500 μM peptide plus equivalent of 1 M sodium hydroxide, 15° C., 20 minutes, LC/MS peak area
Protocol: The molecule stability of the cyclic peptide was evaluated by analyzing the alkali-treated cyclic peptide aqueous solution by liquid chromatography mass spectroscopy (LC/MS).
The alkali treatment was carried out by the following method. A 500 μM cyclic peptide aqueous solution was prepared, an equivalent of 1 M sodium hydroxide aqueous solution was added to this aqueous solution, and the resultant mixture was incubated at 15° C. for 20 minutes to obtain an alkali-treated cyclic peptide aqueous solution. The cyclic peptide residual rate was calculated by setting the total area of all peaks of the cyclic peptide before alkali treatment in LC/MS to 100% and determining the proportion of the total area of all peaks in LC/MS of the alkali-treated cyclic peptide aqueous solution, and the molecule stability was evaluated according to the following evaluation standards. It is preferable that the evaluation result satisfies the evaluation standard A, B, or C.
The conditions of the LC/MS used for the evaluation of molecule stability were set as follows. • LC apparatus: Prominence series (pump, column oven, autosampler, detector) (manufactured by Shimadzu Corporation) • MS detector: LC/MS2010EV (manufactured by Shimadzu Corporation) • Column: Cadenza CD-C18, inner diameter 2.0 mm×length 250 mm, particle size: 3 μm (manufactured by Imtakt Corporation) • Eluent A: a solution (pH 3) containing 10 mM ammonium formate as a solute, where the solvent is 100% water. • Eluent B: a solution (pH 3) containing 10 mM ammonium formate as a solute, where the solvent is acetonitrile/water=90/10. • Flow rate: 0.2 mL/min • Injection volume: 4 μL • Gradient: 0% to 30%: Eluent B (0 to 30 minutes), 100%: Eluent B (30 to 40 minutes), 0%: Eluent B (40 to 60 minutes)(B indicates the eluent B) • Column temperature: 45° C. • Ionization method: electrospray ionization (ESI) positive, ESI negative

| Kd (human integrin αvβ5) [µM] | SMILES | Molecule stability (cyclic peptide residual rate) [1] |
| --- | --- | --- |
| 0.05 to 0.1 | CC[C@H](C)[C@@H]1NC(=O)CSCC[C@@H](C(=O)N[C@@H](CCCCN)C(=O)N[C@@H](CCCCN)C(=O)N[C@@H](CCCCN)C(=O)O)NC(=O)[C@H](Cc2ccccc2)NC(=O)[C@@H]2CCSCC(=O)NCCCC[C@H](NC1=O)C(=O)N[C@@H](CCCNC(=N)N)C(=O)NCC(=O)N[C@@H](CC(=O)O)C(=O)N2 [Cyclic peptide 4] ({CH2CO}-IKRGD[hCys]F[hCys]KKK-OH; linker 2-6 via X2; thioether N-8) | A (The residual rate of the cyclic peptide is 70% or more.) |
| < 0.05 | CC[C@H](C)[C@@H]1NC(=O)CSCC[C@@H](C(=O)N[C@@H](CCCCN)C(=O)N[C@@H](CCCCN)C(=O)N[C@@H](CCCCN)C(=O)O)NC(=O)[C@H](Cc2ccccc2)NC(=O)[C@@H]2CCCCNC(=O)CSC[C@H](NC1=O)C(=O)N[C@@H](CCCNC(=N)N)C(=O)NCC(=O)N[C@@H](CC(=O)O)C(=O)N2 [Cyclic peptide 18] ({CH2CO}-ICRGDKF[hCys]KKK-OH; linker 2-6 via X1; thioether N-8) | A (The residual rate of the cyclic peptide is 70% or more.) |
| < 0.05 | C[C@@H](O)[C@@H]1NC(=O)CSCC[C@@H](C(=O)N[C@@H](CCCCN)C(=O)N[C@@H](CCCCN)C(=O)N[C@@H](CCCCN)C(=O)O)NC(=O)[C@H](Cc2ccccc2)NC(=O)[C@@H]2CCCCNC(=O)CSCC[C@H](NC1=O)C(=O)N[C@@H](CCCNC(=N)N)C(=O)NCC(=O)N[C@@H](CC(=O)O)C(=O)N2 [Cyclic peptide 27] ({CH2CO}-T[hCys]RGDKF[hCys]KKK-OH; linker 2-6 via X1; thioether N-8) | A (The residual rate of the cyclic peptide is 70% or more.) |
| < 0.05 | CC[C@H](C)[C@@H]1NC(=O)CSC(C)(C)[C@@H](C(=O)N[C@@H](CCCCN)C(=O)N[C@@H](CCCCN)C(=O)N[C@@H](CCCCN)C(=O)O)NC(=O)[C@H](Cc2ccccc2)NC(=O)[C@@H]2CCSCC(=O)NCCC[C@H](NC1=O)C(=O)N[C@@H](CCCNC(=N)N)C(=O)NCC(=O)N[C@@H](CC(=O)O)C(=O)N2 [Cyclic peptide 23] ({CH2CO}-I[Orn]RGD[hCys]F[Pen]KKK-OH; linker 2-6 via X2; thioether N-8) | A (The residual rate of the cyclic peptide is 70% or more.) |
|  | N=C(N)NCCC[C@@H]1NC(=O)[C@@H]2CSSC[C@H](NC(=O)[C@H](CC(=O)O)NC(=O)CNC1=O)C(=O)N[C@@H](Cc1ccccc1)C(=O)N[C@H](C(=O)N[C@@H](CCCCN)C(=O)N[C@@H](CCCCN)C(=O)N[C@@H](CCCCN)C(=O)O)CSCC(=O)N[C@@H](CCCCN)C(=O)N2 [Cyclic peptide 48, reference compound] ({CH2CO}-KCRGDCFCKKK-OH; disulfide 2-6; thioether N-8; N-terminus and C-terminus assumed) | D (The residual rate of the cyclic peptide is less than 30%.) |
| 0.05 to 0.1 | CC[C@H](C)[C@@H]1NC(=O)CSCC[C@@H](C(=O)N[C@@H](CCCCN)C(=O)N[C@@H](CCCCN)C(=O)N[C@@H](CCCCN)C(=O)O)NC(=O)[C@@H]2CCCN2C(=O)[C@@H]2CCCCNC(=O)CSCC[C@H](NC1=O)C(=O)N[C@@H](CCCNC(=N)N)C(=O)NCC(=O)N[C@@H](CC(=O)O)C(=O)N2 [Cyclic peptide 31] ({CH2CO}-I[hCys]RGDKP[hCys]KKK-OH; linker 2-6 via X1; thioether N-8) | A (The residual rate of the cyclic peptide is 70% or more.) |
| 0.05 to 0.1 | CC[C@H](C)[C@@H]1NC(=O)CSCC[C@@H](C(=O)N[C@@H](CCCCN)C(=O)N[C@@H](CCCCN)C(=O)N[C@@H](CCCCN)C(=O)O)NC(=O)[C@H](Cc2ccccc2)NC(=O)[C@@H]2CNC(=O)CSCC[C@H](NC1=O)C(=O)N[C@@H](CCCNC(=N)N)C(=O)NCC(=O)N[C@@H](CC(=O)O)C(=O)N2 [Cyclic peptide 5] ({CH2CO}-I[hCys]RGD[Dap]F[hCys]KKK-OH; linker 2-6 via X1; thioether N-8) | A (The residual rate of the cyclic peptide is 70% or more.) |
| 0.05 to 0.1 | CC[C@H](C)[C@@H]1NC(=O)CSCC[C@@H](C(=O)N[C@@H](CCCCN)C(=O)N[C@@H](CCCCN)C(=O)N[C@@H](CCCCN)C(=O)O)NC(=O)[C@H](Cc2ccccc2)NC(=O)[C@@H]2CCCNC(=O)CSCC[C@H](NC1=O)C(=O)N[C@@H](CCCNC(=N)N)C(=O)NCC(=O)N[C@@H](CC(=O)O)C(=O)N2 [Cyclic peptide 9] ({CH2CO}-I[hCys]RGD[Orn]F[hCys]KKK-OH; linker 2-6 via X1; thioether N-8) | A (The residual rate of the cyclic peptide is 70% or more.) |
| 0.05 to 0.1 | CC[C@H](C)[C@@H]1NC(=O)CSCC[C@@H](C(=O)N[C@@H](CCCCN)C(=O)N[C@@H](CCCCN)C(=O)N[C@@H](CCCCN)C(=O)O)NC(=O)[C@H](C)NC(=O)[C@H](Cc2ccccc2)NC(=O)[C@@H]2CCCCNC(=O)CSCC[C@H](NC1=O)C(=O)N[C@@H](CCCNC(=N)N)C(=O)NCC(=O)N[C@@H](CC(=O)O)C(=O)N2 [Cyclic peptide 34] ({CH2CO}-I[hCys]RGDKFA[hCys]KKK-OH; linker 2-6 via X1; thioether N-9) | A (The residual rate of the cyclic peptide is 70% or more.) |
| < 0.05 | CC[C@H](C)[C@@H]1NC(=O)CSC[C@@H](C(=O)N[C@@H](CCCCN)C(=O)N[C@@H](CCCCN)C(=O)N[C@@H](CCCCN)C(=O)O)NC(=O)[C@H](Cc2ccccc2)NC(=O)[C@@H]2CCCCNC(=O)CSCC[C@H](NC1=O)C(=O)N[C@@H](CCCNC(=N)N)C(=O)NCC(=O)N[C@@H](CC(=O)O)C(=O)N2 [Cyclic peptide 17] ({CH2CO}-I[hCys]RGDKFCKKK-OH; linker 2-6 via X1; thioether N-8) | A (The residual rate of the cyclic peptide is 70% or more.) |
| < 0.05 | CC[C@H](C)[C@@H]1NC(=O)CSC[C@@H](C(=O)N[C@@H](CCCCN)C(=O)N[C@@H](CCCCN)C(=O)N[C@@H](CCCCN)C(=O)O)NC(=O)[C@H](Cc2ccccc2)NC(=O)[C@@H]2CCCCNC(=O)CSC[C@H](NC1=O)C(=O)N[C@@H](CCCNC(=N)N)C(=O)NCC(=O)N[C@@H](CC(=O)O)C(=O)N2 [Cyclic peptide 12] ({CH2CO}-ICRGDKFCKKK-OH; linker 2-6 via X1; thioether N-8) | B (The residual rate of the cyclic peptide is 50% or more and less than 70%.) |
|  | N=C(N)NCCC[C@@H]1NC(=O)[C@@H]2CNC(=O)CSCC[C@H](NC(=O)[C@H](CC(=O)O)NC(=O)CNC1=O)C(=O)N[C@@H](Cc1ccccc1)C(=O)N[C@H](C(=O)N[C@@H](CCCCN)C(=O)N[C@@H](CCCCN)C(=O)N[C@@H](CCCCN)C(=O)O)CCSCC(=O)N[C@@H](CCCCN)C(=O)N2 [Cyclic peptide 21] ({CH2CO}-K[Dap]RGD[hCys]F[hCys]KKK-OH; linker 2-6 via X2; thioether N-8; N-terminus and C-terminus assumed) | A (The residual rate of the cyclic peptide is 70% or more.) |
